Results: PubChem BioAssay (NCI)
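Growth conditions: 96-well plates. Treatment: test compound, 48 hours, 5 concentrations. Analysis: linear interpolation between bracketing concentrations; unreached endpoints set to highest concentration. Here, GI50 denotes the concentration required for 50% inhibition of growth. TGI denotes the concentration required for complete inhibition of growth.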

Assays:
Experiment in all cases: NCI anticancer screen, dose series, 48 h
NCI-H460 lung = tested on: NCI-H460 lung
MALME-3M melanoma = tested on: MALME-3M melanoma
SW-620 colon = tested on: SW-620 colon
SK-MEL-5 melanoma = tested on: SK-MEL-5 melanoma
NCI-H226 lung = tested on: NCI-H226 lung
CCRF-CEM leukemia = tested on: CCRF-CEM leukemia
SN12C renal = tested on: SN12C renal
OVCAR-3 ovarian = tested on: OVCAR-3 ovarian
PC-3 prostate = tested on: PC-3 prostate
786-0 renal = tested on: 786-0 renal
RPMI-8226 leukemia = tested on: RPMI-8226 leukemia
NCI/ADR-RES ovarian = tested on: NCI/ADR-RES ovarian
HL-60(TB) leukemia = tested on: HL-60(TB) leukemia
RXF 393 renal = tested on: RXF 393 renal
SK-MEL-28 melanoma = tested on: SK-MEL-28 melanoma
A498 renal = tested on: A498 renal
SF-295 CNS = tested on: SF-295 CNS
HS 578T breast = tested on: HS 578T breast
EKVX NSCLC = tested on: EKVX NSCLC
MDA-MB-435 = tested on: MDA-MB-435
CAKI-1 renal = tested on: CAKI-1 renal
DU-145 prostate = tested on: DU-145 prostate
HCT-15 colon = tested on: HCT-15 colon
SK-MEL-2 melanoma = tested on: SK-MEL-2 melanoma
SR leukemia = tested on: SR leukemia
TK-10 renal = tested on: TK-10 renal
KM12 colon = tested on: KM12 colon
SF-539 CNS = tested on: SF-539 CNS
HT29 colon = tested on: HT29 colon
T-47D breast = tested on: T-47D breast
SK-OV-3 ovarian = tested on: SK-OV-3 ovarian
U251 CNS = tested on: U251 CNS
HOP-62 NSCLC = tested on: HOP-62 NSCLC
HCT-116 colon = tested on: HCT-116 colon
SF-268 CNS = tested on: SF-268 CNS
NCI-H23 lung = tested on: NCI-H23 lung
SNB-75 CNS = tested on: SNB-75 CNS
MCF7 breast = tested on: MCF7 breast
OVCAR-8 ovarian = tested on: OVCAR-8 ovarian
UACC-257 melanoma = tested on: UACC-257 melanoma
A549 NSCLC = tested on: A549 NSCLC
MOLT-4 leukemia = tested on: MOLT-4 leukemia
NCI-H522 lung = tested on: NCI-H522 lung
M14 melanoma = tested on: M14 melanoma
HOP-92 NSCLC = tested on: HOP-92 NSCLC
OVCAR-5 ovarian = tested on: OVCAR-5 ovarian
UO-31 renal = tested on: UO-31 renal
OVCAR-4 ovarian = tested on: OVCAR-4 ovarian
BT-549 breast = tested on: BT-549 breast
SNB-19 CNS = tested on: SNB-19 CNS
IGROV1 ovarian = tested on: IGROV1 ovarian
UACC-62 melanoma = tested on: UACC-62 melanoma
K-562 leukemia = tested on: K-562 leukemia
MDA-MB-231 breast = tested on: MDA-MB-231 breast
COLO 205 colon = tested on: COLO 205 colon
ACHN renal = tested on: ACHN renal
HCC-2998 colon = tested on: HCC-2998 colon
LOX IMVI melanoma = tested on: LOX IMVI melanoma

In the case of `C/C=C(\C)C(=O)O[C@@H]1C=CC(=O)O[C@H]1CNC(=O)[C@H](C)O`, the GI50 (NCI-H460 lung) is reported as 22.2 µM, the TGI (NCI-H460 lung) is reported as 67.9 µM and the GI50 (MALME-3M melanoma) is reported as 15 µM. It also gave a TGI (MALME-3M melanoma) of 32.8 µM, a GI50 (SW-620 colon) of 10 µM and a TGI (SW-620 colon) of 25.4 µM. The GI50 (SK-MEL-5 melanoma) was 19.6 µM, the TGI (SK-MEL-5 melanoma) was 38.8 µM and the GI50 (NCI-H226 lung) was 28.9 µM. The TGI (NCI-H226 lung) was > 81.4 µM, the GI50 (CCRF-CEM leukemia) was 6.1 µM and the TGI (CCRF-CEM leukemia) was 26.2 µM. The GI50 (SN12C renal) was 26.9 µM, the TGI (SN12C renal) was > 75.6 µM and the GI50 (OVCAR-3 ovarian) was 17.4 µM. The TGI (OVCAR-3 ovarian) was 37.8 µM, the GI50 (PC-3 prostate) was 27.3 µM and the TGI (PC-3 prostate) was > 92.2 µM. It also gave a GI50 (786-0 renal) of 23.6 µM, a TGI (786-0 renal) of 73.5 µM and a GI50 (RPMI-8226 leukemia) of 9.12 µM. For the same molecule, the TGI (RPMI-8226 leukemia) was 33.3 µM, the GI50 (NCI/ADR-RES ovarian) was 34.6 µM and the TGI (NCI/ADR-RES ovarian) was > 100 µM. It also gave a GI50 (HL-60(TB) leukemia) of 8.67 µM, a TGI (HL-60(TB) leukemia) of 32.3 µM and a GI50 (RXF 393 renal) of 18.3 µM. The TGI (RXF 393 renal) was 42.9 µM, the GI50 (SK-MEL-28 melanoma) was 16.1 µM and the TGI (SK-MEL-28 melanoma) was 35.8 µM. The GI50 (A498 renal) was 21.2 µM, the TGI (A498 renal) was 53 µM and the GI50 (SF-295 CNS) was 27.7 µM. The TGI (SF-295 CNS) was > 66.7 µM, the GI50 (HS 578T breast) was 16.7 µM and the TGI (HS 578T breast) was 53.8 µM. It also gave a GI50 (EKVX NSCLC) of 20.9 µM, a TGI (EKVX NSCLC) of 49.5 µM and a GI50 (MDA-MB-435) of 22.6 µM. For the same molecule, the TGI (MDA-MB-435) was 82.1 µM, the GI50 (CAKI-1 renal) was 17.8 µM and the TGI (CAKI-1 renal) was 36.5 µM. The GI50 (DU-145 prostate) was 22.6 µM, the TGI (DU-145 prostate) was 69.1 µM and the GI50 (HCT-15 colon) was 18.5 µM. For the same molecule, the TGI (HCT-15 colon) was 45.4 µM, the GI50 (SK-MEL-2 melanoma) was 20 µM and the TGI (SK-MEL-2 melanoma) was 48.5 µM. The GI50 (SR leukemia) was 6.78 µM, the TGI (SR leukemia) was 48.6 µM and the GI50 (TK-10 renal) was 18.9 µM. The TGI (TK-10 renal) was 43.2 µM, the GI50 (KM12 colon) was 17.3 µM and the TGI (KM12 colon) was 36.3 µM. The GI50 (SF-539 CNS) was 23.3 µM, the TGI (SF-539 CNS) was 57.5 µM and the GI50 (HT29 colon) was 17.7 µM. For the same molecule, the TGI (HT29 colon) was 40.6 µM, the GI50 (T-47D breast) was 21.9 µM and the TGI (T-47D breast) was > 66.8 µM. The GI50 (SK-OV-3 ovarian) was 39.4 µM, the TGI (SK-OV-3 ovarian) was 98.9 µM and the GI50 (U251 CNS) was 20.5 µM. The TGI (U251 CNS) was 54.7 µM, the GI50 (HOP-62 NSCLC) was 26.4 µM and the TGI (HOP-62 NSCLC) was 65.3 µM. For the same molecule, the GI50 (HCT-116 colon) was 9.48 µM, the TGI (HCT-116 colon) was 24.2 µM and the GI50 (SF-268 CNS) was 17 µM. The TGI (SF-268 CNS) was 51.3 µM, the GI50 (NCI-H23 lung) was 25.6 µM and the TGI (NCI-H23 lung) was > 75.4 µM. The GI50 (SNB-75 CNS) was 24.4 µM, the TGI (SNB-75 CNS) was > 74.3 µM and the GI50 (MCF7 breast) was 15 µM. For the same molecule, the TGI (MCF7 breast) was 46.7 µM, the GI50 (OVCAR-8 ovarian) was 30.5 µM and the TGI (OVCAR-8 ovarian) was > 100 µM. For the same molecule, the GI50 (UACC-257 melanoma) was 26.9 µM, the TGI (UACC-257 melanoma) was > 84.4 µM and the GI50 (A549 NSCLC) was 30.5 µM. For the same molecule, the TGI (A549 NSCLC) was > 88.4 µM, the TGI (MOLT-4 leukemia) was 5.35 µM and the GI50 (NCI-H522 lung) was 13.1 µM. For the same molecule, the TGI (NCI-H522 lung) was 30.5 µM, the GI50 (M14 melanoma) was 18.6 µM and the TGI (M14 melanoma) was 49.1 µM. It also gave a GI50 (HOP-92 NSCLC) of 17.4 µM, a TGI (HOP-92 NSCLC) of 37.5 µM and a GI50 (OVCAR-5 ovarian) of 32 µM. For the same molecule, the TGI (OVCAR-5 ovarian) was > 73.2 µM, the GI50 (UO-31 renal) was 21.3 µM and the TGI (UO-31 renal) was 59.1 µM. For the same molecule, the GI50 (OVCAR-4 ovarian) was 19 µM, the TGI (OVCAR-4 ovarian) was 42.9 µM and the GI50 (BT-549 breast) was 12.5 µM. For the same molecule, the TGI (BT-549 breast) was 28 µM, the GI50 (SNB-19 CNS) was 27 µM and the TGI (SNB-19 CNS) was > 74.8 µM. For the same molecule, the GI50 (IGROV1 ovarian) was 26.6 µM, the TGI (IGROV1 ovarian) was > 78.1 µM and the GI50 (UACC-62 melanoma) was 16.9 µM. The TGI (UACC-62 melanoma) was 37.7 µM, the GI50 (K-562 leukemia) was 16.9 µM and the TGI (K-562 leukemia) was 64.2 µM. For the same molecule, the GI50 (MDA-MB-231 breast) was 21.8 µM, the TGI (MDA-MB-231 breast) was 45.5 µM and the GI50 (COLO 205 colon) was 8.96 µM. The TGI (COLO 205 colon) was 27.2 µM, the GI50 (ACHN renal) was 15.9 µM and the TGI (ACHN renal) was 31.2 µM. The GI50 (HCC-2998 colon) was 20.4 µM, the TGI (HCC-2998 colon) was 40.9 µM and the GI50 (LOX IMVI melanoma) was 15.9 µM. It also gave a TGI (LOX IMVI melanoma) of 31.3 µM.
